Experimental data: patent US20050171101A1 (Fujisawa Pharmaceutical Co. Ltd., priority 2002, published 2005)
Structures can show the parent of a compound that is named as a salt.

Target: recombinant human PARP (Homo sapiens, UniProt P09874)
Assay: PARP inhibitory activity (In vitro assay)
Format: biochemical
Conditions: 32P-NAD, 0.05 mM NAD, activated DNA, pH8.0, 15 minutes at room temperature
Description: PARP inhibitory activity (In vitro assay)
The recombinant human PARP (5.3 mg protein/ml) was incubated with a test compound in a 100 μl reaction buffer containing an indicated concentration of 1 mCi/ml ^32P-NAD, 50 mM Tris-HCl, 25 mM MgCl2, 1 mM DTT (dithiothreitol), 0.05 mM NAD (nicotinamide adenine dinucleotide) and 1 mg/ml activated DNA, pH8.0. Incubation was carried out for 15 minutes at a room temperature, and the reaction was stopped by addition of 200 μl of ice-cold 20% tricholoroacetic acid followed by rapid filtration through GF/B filters. The […] was treated with scintillation fluid and acid-insoluble counts were measured for quantification of unit activity. PARP inhibitory activity was calculated by using the following formula: PARP inhibitory activity (%)=[1-(count obtained with test compound)/(count obtained with vehicle only)]×100

recombinant human PARP, sequence (P09874 whole entry): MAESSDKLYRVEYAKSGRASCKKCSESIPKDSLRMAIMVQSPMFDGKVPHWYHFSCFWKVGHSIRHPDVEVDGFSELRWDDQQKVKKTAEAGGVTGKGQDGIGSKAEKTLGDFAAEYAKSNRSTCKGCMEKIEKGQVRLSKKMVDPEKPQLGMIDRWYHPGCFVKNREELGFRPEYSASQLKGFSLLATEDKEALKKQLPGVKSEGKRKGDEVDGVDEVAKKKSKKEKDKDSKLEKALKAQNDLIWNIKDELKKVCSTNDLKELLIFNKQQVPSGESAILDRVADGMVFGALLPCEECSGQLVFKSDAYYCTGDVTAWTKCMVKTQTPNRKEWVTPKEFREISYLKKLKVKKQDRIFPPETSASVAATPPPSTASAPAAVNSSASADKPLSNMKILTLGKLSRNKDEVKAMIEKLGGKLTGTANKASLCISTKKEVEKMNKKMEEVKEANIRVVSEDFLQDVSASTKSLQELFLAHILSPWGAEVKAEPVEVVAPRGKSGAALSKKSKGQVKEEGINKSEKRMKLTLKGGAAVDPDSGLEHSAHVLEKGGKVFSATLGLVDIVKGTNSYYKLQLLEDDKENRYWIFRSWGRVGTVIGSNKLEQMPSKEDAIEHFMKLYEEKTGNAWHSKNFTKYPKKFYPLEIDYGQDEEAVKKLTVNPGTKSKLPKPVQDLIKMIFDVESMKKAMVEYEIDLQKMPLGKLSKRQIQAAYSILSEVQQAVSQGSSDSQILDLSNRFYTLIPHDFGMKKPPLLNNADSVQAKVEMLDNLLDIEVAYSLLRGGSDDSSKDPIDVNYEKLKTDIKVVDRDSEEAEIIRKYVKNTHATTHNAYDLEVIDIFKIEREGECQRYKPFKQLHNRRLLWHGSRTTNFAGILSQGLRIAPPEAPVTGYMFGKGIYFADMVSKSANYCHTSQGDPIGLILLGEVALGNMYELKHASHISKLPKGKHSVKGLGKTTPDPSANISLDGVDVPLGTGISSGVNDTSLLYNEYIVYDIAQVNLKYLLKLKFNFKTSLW

Row | SMILES | IC50
1 | O=c1[nH]c2ccc(CCCN3CC=C(c4ccc(F)cc4)CC3)cc2c2ccccc12 [Example 2, 2-{3-[4-(4-fluorophenyl)-3,6-dihydro-1 (2H)-pyridyl]propyl}-6(5H)-phenanthridinone] | < 100 nM
2 | O=c1[nH]c2cc(CN3CC=C(c4ccc(Cl)cc4)CC3)ccc2c2c1CCCC2 [Example 15, 3-{[4-(4-Chlorophenyl)-3,6-dihydro-1(2H)-pyridyl]methyl}-7,8,9,10-tetrahydro-6(5H)-phenanthridinone] | < 100 nM
3 | O=c1[nH]c2cc(CN3CCC(O)(c4ccccc4)CC3)ccc2c2c1CCCC2 [Example 35, 3-[(4-hydroxy-4-phenyl-1-piperidyl)methyl]-7,8,9,10-tetrahydro-6(5H)-phenanthridinone hydrochloride] | < 100 nM

The remaining lines, values ahead:

Row | IC50 | SMILES
4 | < 100 nM | Cc1ccc(C2CCN(Cc3ccc4c5c(c(=O)[nH]c4c3)CCCC5)CC2)cc1 [Example 30, 3-{[4-(4-methylphenyl)-1-piperidyl]methyl}-7,8,9,10-tetrahydro-6(5H)-phenanthridinone hydrochloride]
5 | < 100 nM | O=c1[nH]c2c(Oc3ccccn3)cccc2c2c1CCCC2 [Example 42]
6 | < 100 nM | O=c1[nH]c2cc(CN3CCN(c4ccc(Cl)cn4)CC3)ccc2c2ccccc12 [Example 52, 3-{[4-(5-chloro-2-pyridyl)-1-piperazinyl]methyl}-6(5H)-phenanthridinone dihydrochloride]
7 | < 100 nM | O=c1[nH]c2cc(CN3CCCCC3)ccc2c2ccccc12 [Example 60, 3-(1-piperidylmethyl)-6(5H)-phenanthridinone]
8 | < 100 nM | Cc1ccc(C2CCN(Cc3ccc4c(c3)[nH]c(=O)c3ccccc34)CC2)nc1 [Example 63, 3-{[4-(5-methyl-2-pyridyl)-1-piperidyl]methyl}-6(5H)-phenanthridinone]
